# According to article PMC5762315, “Inhibition of polo-like kinase 4 (PLK4): a new therapeutic option for rhabdoid tumors and pediatric medulloblastoma” (Oncotarget, 2017):
# Where “and” joins values, the source holds several entries; their conditions need not be identical. Equal values may be shown once.
# What was measured:
# various kinases [1] = target: various kinases (Homo sapiens, UniProt P42336); test: Adapta Universal Kinase Assay, panel of 486 biochemical kinase assays; parameters: % Inhibition Average: concentration or dose not given beside the values
# various kinases (Homo sapiens, UniProt P42336), sequence (P42336 whole entry): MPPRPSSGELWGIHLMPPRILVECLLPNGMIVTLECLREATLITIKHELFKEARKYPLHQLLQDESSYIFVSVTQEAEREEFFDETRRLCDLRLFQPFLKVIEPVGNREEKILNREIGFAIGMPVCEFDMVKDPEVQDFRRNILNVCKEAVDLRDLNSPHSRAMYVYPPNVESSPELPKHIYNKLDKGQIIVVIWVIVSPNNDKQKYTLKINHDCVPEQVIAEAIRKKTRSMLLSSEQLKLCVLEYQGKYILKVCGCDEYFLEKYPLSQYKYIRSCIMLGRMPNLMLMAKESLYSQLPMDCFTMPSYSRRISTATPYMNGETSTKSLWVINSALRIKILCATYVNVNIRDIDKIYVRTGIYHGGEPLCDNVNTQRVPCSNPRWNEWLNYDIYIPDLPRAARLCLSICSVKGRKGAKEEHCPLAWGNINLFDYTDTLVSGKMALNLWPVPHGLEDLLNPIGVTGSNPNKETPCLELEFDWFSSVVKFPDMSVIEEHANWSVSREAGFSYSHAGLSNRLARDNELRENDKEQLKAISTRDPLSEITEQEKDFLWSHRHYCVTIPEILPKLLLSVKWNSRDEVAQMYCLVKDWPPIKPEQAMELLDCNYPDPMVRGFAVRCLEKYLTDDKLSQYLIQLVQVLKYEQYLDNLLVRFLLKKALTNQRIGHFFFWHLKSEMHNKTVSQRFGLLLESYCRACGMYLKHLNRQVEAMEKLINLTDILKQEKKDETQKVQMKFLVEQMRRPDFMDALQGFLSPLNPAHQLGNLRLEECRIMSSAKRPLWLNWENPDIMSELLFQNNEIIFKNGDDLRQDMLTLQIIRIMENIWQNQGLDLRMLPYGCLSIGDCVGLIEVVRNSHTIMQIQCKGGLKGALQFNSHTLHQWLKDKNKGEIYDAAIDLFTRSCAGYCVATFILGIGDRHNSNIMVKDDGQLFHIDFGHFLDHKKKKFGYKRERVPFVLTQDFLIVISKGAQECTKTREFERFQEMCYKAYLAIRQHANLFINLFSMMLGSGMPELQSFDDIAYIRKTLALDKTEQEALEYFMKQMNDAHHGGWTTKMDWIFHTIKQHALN
# various kinases [2] = target: various kinases (Homo sapiens, UniProt P42338); test: as above; parameters: % Inhibition Average: concentration or dose not given beside the values
# various kinases (Homo sapiens, UniProt P42338), sequence (P42338 whole entry): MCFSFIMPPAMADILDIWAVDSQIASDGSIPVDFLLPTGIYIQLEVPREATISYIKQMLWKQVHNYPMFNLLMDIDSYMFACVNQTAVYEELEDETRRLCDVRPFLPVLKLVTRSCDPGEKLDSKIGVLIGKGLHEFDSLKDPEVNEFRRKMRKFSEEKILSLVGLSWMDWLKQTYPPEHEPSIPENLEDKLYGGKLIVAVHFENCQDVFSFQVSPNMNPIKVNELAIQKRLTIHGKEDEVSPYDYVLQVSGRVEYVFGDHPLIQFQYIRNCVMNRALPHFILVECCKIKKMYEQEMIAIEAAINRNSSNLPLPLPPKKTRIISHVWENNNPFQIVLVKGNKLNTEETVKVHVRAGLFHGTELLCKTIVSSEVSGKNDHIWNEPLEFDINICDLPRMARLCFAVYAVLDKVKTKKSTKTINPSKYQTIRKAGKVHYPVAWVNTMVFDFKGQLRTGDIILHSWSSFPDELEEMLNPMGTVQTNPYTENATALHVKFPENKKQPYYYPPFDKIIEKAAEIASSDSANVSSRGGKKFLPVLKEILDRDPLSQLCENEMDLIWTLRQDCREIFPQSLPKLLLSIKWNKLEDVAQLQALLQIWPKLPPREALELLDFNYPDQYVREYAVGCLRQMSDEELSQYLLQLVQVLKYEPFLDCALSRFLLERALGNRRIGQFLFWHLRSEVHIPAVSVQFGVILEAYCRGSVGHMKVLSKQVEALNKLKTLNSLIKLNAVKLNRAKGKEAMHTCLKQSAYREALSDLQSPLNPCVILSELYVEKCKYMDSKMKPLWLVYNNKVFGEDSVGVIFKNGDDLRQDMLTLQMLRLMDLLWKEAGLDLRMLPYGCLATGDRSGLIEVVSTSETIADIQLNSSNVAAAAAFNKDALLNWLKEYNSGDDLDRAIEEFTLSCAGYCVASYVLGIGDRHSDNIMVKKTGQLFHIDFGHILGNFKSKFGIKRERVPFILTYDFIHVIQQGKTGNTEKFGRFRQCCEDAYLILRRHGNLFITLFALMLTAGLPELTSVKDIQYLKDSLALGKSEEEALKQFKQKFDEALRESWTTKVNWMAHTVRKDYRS
# various kinases [3] = target: various kinases (Homo sapiens, UniProt P50750); test: as above; parameters: % Inhibition Average: concentration or dose not given beside the values; settings: CDK9/cyclin T1
# various kinases [4] = target: various kinases (Homo sapiens, UniProt P51617); test: as above; parameters: % Inhibition Average: concentration or dose not given beside the values; settings: IRAK1
# various kinases [5] = target: various kinases (Homo sapiens, UniProt P53355); test: as above; parameters: % Inhibition Average: concentration or dose not given beside the values; settings: DAPK1
# various kinases [6] = target: various kinases (Homo sapiens, UniProt Q14012); test: as above; parameters: % Inhibition Average: concentration or dose not given beside the values; settings: CAMK1 (CaMK1)
# various kinases [7] = target: various kinases (Homo sapiens, UniProt Q5S007, G2019S); test: as above; parameters: % Inhibition Average: concentration or dose not given beside the values
# various kinases [8] = target: various kinases (Homo sapiens, UniProt Q8NEB9); test: as above; parameters: % Inhibition Average: concentration or dose not given beside the values; settings: PIK3C3 (hVPS34)
# various kinases [9] = target: various kinases (Homo sapiens, UniProt Q8TF76); test: as above; parameters: % Inhibition Average: concentration or dose not given beside the values; settings: GSG2 (Haspin)
# various kinases [10] = target: various kinases (Homo sapiens, UniProt Q9NYA1); test: as above; parameters: % Inhibition Average: concentration or dose not given beside the values; settings: kinase SPHK1; Adapta
# various kinases (Homo sapiens, UniProt Q9NYA1), sequence (Q9NYA1 whole entry): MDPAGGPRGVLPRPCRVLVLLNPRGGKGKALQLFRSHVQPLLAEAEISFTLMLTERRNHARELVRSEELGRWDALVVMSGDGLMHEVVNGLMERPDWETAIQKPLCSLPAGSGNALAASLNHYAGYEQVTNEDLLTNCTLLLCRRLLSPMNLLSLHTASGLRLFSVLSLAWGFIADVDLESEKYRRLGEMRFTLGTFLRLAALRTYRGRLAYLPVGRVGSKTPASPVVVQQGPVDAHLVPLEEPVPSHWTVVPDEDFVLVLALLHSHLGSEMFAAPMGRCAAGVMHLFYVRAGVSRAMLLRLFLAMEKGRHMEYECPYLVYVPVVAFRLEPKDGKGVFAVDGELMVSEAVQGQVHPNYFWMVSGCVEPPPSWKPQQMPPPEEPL
# various kinases [11] = target: various kinases (Homo sapiens, UniProt Q9UBF8); test: as above; parameters: % Inhibition Average: concentration or dose not given beside the values; settings: PI4KB (PI4K beta)
# various kinases [12] = target: various kinases (Homo sapiens, UniProt P00519, H396P); test: LanthaScreen Eu Kinase Binding Assay, panel of 486 biochemical kinase assays; settings: ABL1 H396P
# various kinases [13] = target: various kinases (Homo sapiens, UniProt P07949, M918T); test: as above; settings: kinase RET M918T; LanthaScreen Binding
# various kinases (Homo sapiens, UniProt P07949, M918T), sequence (P07949 29-1114 M918T): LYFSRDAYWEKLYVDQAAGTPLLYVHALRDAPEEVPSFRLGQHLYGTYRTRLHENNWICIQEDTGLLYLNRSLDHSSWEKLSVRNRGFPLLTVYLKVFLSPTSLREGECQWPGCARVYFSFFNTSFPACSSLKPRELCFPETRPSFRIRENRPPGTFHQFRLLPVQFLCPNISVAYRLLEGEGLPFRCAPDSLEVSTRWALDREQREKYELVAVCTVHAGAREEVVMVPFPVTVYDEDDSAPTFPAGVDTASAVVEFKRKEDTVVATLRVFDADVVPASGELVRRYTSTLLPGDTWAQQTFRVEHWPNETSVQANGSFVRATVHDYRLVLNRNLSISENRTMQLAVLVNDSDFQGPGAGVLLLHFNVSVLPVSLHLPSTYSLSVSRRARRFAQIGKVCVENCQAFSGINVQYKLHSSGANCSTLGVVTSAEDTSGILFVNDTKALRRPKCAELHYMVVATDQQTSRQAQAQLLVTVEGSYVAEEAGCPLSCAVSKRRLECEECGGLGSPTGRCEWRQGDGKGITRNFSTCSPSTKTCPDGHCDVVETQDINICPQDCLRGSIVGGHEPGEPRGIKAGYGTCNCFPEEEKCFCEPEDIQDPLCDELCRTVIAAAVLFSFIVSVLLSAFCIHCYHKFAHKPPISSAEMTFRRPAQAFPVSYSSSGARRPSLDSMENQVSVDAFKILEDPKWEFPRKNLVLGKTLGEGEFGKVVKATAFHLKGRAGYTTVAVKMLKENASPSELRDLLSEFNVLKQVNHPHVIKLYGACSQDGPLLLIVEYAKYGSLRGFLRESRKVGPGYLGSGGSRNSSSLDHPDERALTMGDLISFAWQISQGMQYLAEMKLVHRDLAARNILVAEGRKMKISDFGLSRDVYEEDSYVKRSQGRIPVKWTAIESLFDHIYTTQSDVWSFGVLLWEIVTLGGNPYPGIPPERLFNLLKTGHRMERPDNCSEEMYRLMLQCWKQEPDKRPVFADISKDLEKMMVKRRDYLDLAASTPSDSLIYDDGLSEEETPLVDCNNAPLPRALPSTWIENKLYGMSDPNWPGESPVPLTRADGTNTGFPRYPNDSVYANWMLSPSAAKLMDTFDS
# various kinases [14] = target: various kinases (Homo sapiens, UniProt P07949, V804M); test: as above; settings: kinase RET V804M; LanthaScreen Binding
# various kinases (Homo sapiens, UniProt P07949, V804M), sequence (P07949 29-1114 V804M): as the sequence (P07949 29-1114 M918T) above, with V776M, T890M counted along it
# various kinases [15] = target: various kinases (Homo sapiens, UniProt P10721, D820E); test: as above; settings: KIT D820E
# various kinases [16] = target: various kinases (Homo sapiens, UniProt P29320); test: as above; settings: EPHA3
# various kinases [17] = target: various kinases (Homo sapiens, UniProt Q02779); test: as above; settings: MAP3K10 (MLK2)
# various kinases [18] = target: various kinases (Homo sapiens, UniProt Q13705); test: as above; settings: ACVR2B
# various kinases [19] = target: various kinases (Homo sapiens, UniProt Q99558); test: as above; settings: MAP3K14 (NIK)
# various kinases [20] = target: various kinases (Homo sapiens, UniProt Q9UKE5); test: as above; settings: kinase TNIK; LanthaScreen Binding
# various kinases (Homo sapiens, UniProt Q9UKE5), sequence (Q9UKE5 whole entry): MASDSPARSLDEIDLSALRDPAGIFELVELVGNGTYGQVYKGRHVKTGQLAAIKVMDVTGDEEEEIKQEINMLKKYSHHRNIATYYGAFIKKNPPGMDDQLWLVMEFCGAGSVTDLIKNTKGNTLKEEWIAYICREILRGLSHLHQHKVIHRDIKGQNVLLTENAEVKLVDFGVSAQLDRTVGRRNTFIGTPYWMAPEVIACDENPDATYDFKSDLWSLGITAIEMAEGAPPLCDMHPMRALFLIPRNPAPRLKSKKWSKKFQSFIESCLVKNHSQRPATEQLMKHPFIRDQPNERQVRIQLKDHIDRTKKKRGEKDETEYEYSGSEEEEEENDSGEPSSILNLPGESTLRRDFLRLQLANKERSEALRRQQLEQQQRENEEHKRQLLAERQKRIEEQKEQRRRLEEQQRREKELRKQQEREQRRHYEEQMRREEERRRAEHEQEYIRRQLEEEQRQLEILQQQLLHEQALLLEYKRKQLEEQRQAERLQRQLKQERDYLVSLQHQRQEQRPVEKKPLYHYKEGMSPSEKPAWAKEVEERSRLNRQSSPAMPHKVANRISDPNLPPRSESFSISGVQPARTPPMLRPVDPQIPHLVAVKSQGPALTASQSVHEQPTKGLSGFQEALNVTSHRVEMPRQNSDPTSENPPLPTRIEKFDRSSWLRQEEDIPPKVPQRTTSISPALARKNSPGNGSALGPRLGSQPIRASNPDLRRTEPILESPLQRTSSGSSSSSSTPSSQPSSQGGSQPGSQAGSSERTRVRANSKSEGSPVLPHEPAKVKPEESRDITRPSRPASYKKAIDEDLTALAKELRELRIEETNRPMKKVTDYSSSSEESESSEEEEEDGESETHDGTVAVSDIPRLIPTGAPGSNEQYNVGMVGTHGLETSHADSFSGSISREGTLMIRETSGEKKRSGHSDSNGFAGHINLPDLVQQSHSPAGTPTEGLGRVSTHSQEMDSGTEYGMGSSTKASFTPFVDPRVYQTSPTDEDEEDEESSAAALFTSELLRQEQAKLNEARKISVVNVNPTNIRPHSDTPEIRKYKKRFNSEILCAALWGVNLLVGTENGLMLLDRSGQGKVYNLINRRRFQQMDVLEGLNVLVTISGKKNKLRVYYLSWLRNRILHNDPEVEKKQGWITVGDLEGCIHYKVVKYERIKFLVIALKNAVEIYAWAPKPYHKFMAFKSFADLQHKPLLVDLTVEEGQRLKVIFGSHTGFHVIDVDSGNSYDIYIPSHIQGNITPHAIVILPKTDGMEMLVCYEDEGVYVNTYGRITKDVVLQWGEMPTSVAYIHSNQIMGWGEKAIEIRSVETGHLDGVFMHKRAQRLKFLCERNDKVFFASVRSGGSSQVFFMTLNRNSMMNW
# MON MRT cells = test: Confluency assay (IncuCyte ZOOM), MON; format: cell-based, human; settings: increasing concentrations starting at 31.25nM, 48 hours, p-value=0.004
# Method: For further evaluation of the effect of the PLK4 inhibitor over tumor cell proliferation, confluency was measured over a 48 hour period. MON, BT-12, G401 and DAOY cells were plated in 96-well plates with a density of 6 x 10^4 per well. […] Confluency was monitored for 48 hours by taking phase contrast images every 2 hours and measured using an IncuCyte ZOOM system (Essen BioScience, USA). Experiments were performed in triplicates.
# [21] = tested on: G401, BT-12, BT-16, DAOY and D283 cell lines; test: Immunofluorescence for gamma-tubulin (centriole number), other RT and MB lines; format: cell-based, human
# Method: The cells were then blocked in blocking buffer (5% BSA (Jackson Immuno Research Laboratories Inc., USA) in PBST) for 1 hour at RT. The primary antibody ([…] 1:500, Sigma, USA) diluted in 1% BSA in PBST was then added and incubated at 4°C overnight. Then, the cells were washed with 1X PBS thrice. Secondary antibody (Anti-Rabbit IgG (H+L) F (ab’) 2, 1:500, Sigma, USA) diluted in 1% BSA in PBST was added and incubated at RT for 2 hours. Three time washes with 1X PBS were performed. Then, 1mL of DAPI (Thermo Fisher Scientific, USA) in PBS (0.5μl of DAPI in 10 ml PBS) was added to the cells and incubated for 10 min at RT. Finally, 3 time washes with 1X PBS were performed and slides were mounted using Mounting Medium (Thermo Fisher Scientific, USA).
# [22] = Brain to plasma ratio (B:P), LC-MS/MS; format: in vivo, male CD-1 mice; settings: male, CD-1, mouse, po, 7.5 mg/kg, 4 hours post-dose
# Method: Male CD-1 mice weighing between 20 and 40 grams were fitted with jugular vein cannulas as appropriate and fasted overnight until 4 hours post-dose. Double route of administration (oral and IV) were tested, with a single dose concentration of 7.5mg/kg. Plasma and brain were sampled at 6 time-points, starting at 30 minutes (n=3 animals/time-point). Brain was extracted at the same plasma sampling time-point from each animal. Both plasma and brain samples were deproteinated. Brain samples were weighted, homogenized and CFI-400945 was extracted. […] The dosing solution was normalized in a matched matrix (mouse plasma) and analyzed in triplicate in the same analytical batch as the incurred samples (Absorption Systems - Exton, PA).
compound,measurement,setting,value
COc1ccc2c(c1)[C@]1(C[C@H]1c1ccc3c(/C=C/c4ccc(CN5C[C@@H](C)O[C@@H](C)C5)cc4)n[nH]c3c1)C(=O)N2 [CFI-400945],% Inhibition,various kinases [1]; PIK3CA/PIK3R1 (p110 alpha/p85 alpha),-9% and -6%
same,% Inhibition,various kinases [1]; PIK3CA/PIK3R3 (p110 alpha/p55 gamma),-2% and 6%
same,% Inhibition,various kinases [2]; PIK3CB/PIK3R1 (p110 beta/p85 alpha),4% and 3%
same,% Inhibition,various kinases [2]; PIK3CB/PIK3R2 (p110 beta/p85 beta),12% and 6%
same,% Inhibition,various kinases [3],17% and 14%
same,% Inhibition,various kinases [4],-8% and -12%
same,% Inhibition,various kinases [5],2% and 0%
same,% Inhibition,various kinases [6],21% and 24%
same,% Inhibition,various kinases [7]; LRRK2 G2019S,54% and 55%
same,% Inhibition,various kinases [7]; LRRK2 G2019S FL,54% and 50%
same,% Inhibition,various kinases [8],8% and 15%
same,% Inhibition,various kinases [9],-7% and 3%
same,% Inhibition Average,various kinases [10],-12%
same,% Inhibition Duplicate #1,various kinases [10],-11%
same,% Inhibition Duplicate #2,various kinases [10],-14%
same,% Inhibition,various kinases [11],3% and 11%
same,% Inhibition,various kinases [12],72% and 73%
same,% Inhibition Average,various kinases [13],27%
same,% Inhibition Duplicate #1,various kinases [13],26%
same,% Inhibition Duplicate #2,various kinases [13],28%
same,% Inhibition Average,various kinases [14],34%
same,% Inhibition Duplicate #1,various kinases [14],29%
same,% Inhibition Duplicate #2,various kinases [14],39%
same,% Inhibition,various kinases [15],3% and 4%
same,% Inhibition,various kinases [16],-2% and -1%
same,% Inhibition,various kinases [17],-2% and 1%
same,% Inhibition,various kinases [18],4% and 0%
same,% Inhibition,various kinases [19],0% and 1%
same,% Inhibition Average,various kinases [20],26%
same,% Inhibition Duplicate #1,various kinases [20],33%
same,% Inhibition Duplicate #2,various kinases [20],18%
same,"FC, delay in reaching confluency",MON MRT cells,1.56
same,centrioles' number,[21]; 100nM,increase
same,centrioles' number,[21]; 500nM,significant decrease
same,Kp at 4 h,"[22]; brain / plasma, fasted male CD-1 mice, triplicates, read-out: Average Raw B:P Ratio",~0.08
same,concentration at 4 h,"[22]; plasma, plasma density assumed 1 g/mL, individual mice #355, 356, 357, read-out: Plasma Conc.",498 ng/g
